What was measured:
[1] = Antiproliferative activity against HMEC1 after 4 days by coulter counter analysis; format: functional; conditions: Homo sapiens, HMEC-1, 96 h
[2] = Antiproliferative activity against MBEC after 3 days by coulter counter analysis; format: functional, Mus musculus
[3] = Antiproliferative activity against BAEC after 3 days by coulter counter analysis; format: functional; conditions: Bos taurus, 72 h
L1210 = test: Antiproliferative activity against mouse L1210 cells after 48 to 96 hrs by coulter counter analysis; format: functional, cell-based
CCRF-CEM = test: Antiproliferative activity against human CEM cells after 48 to 96 hrs by coulter counter analysis; format: functional, cell-based
HeLa = test: Antiproliferative activity against human HeLa cells after 4 days by coulter counter analysis; format: functional, cell-based; conditions: 96 h

Row | Compound | IC50 [1] [µM] | IC50 [2] [µM] | IC50 [3] [µM] | IC50 (L1210) [µM] | IC50 (CCRF-CEM) [µM] | IC50 (HeLa) [µM]
1 | CC(Nc1ccccc1Cl)=C1C(=O)CC(c2ccccc2)CC1=O (centres undefined) | 0.56 | 0.47 | 0.29 | 0.7 | 0.64 | 0.71
2 | CCC(Nc1ccccc1)=C1C(=O)CC(c2ccccc2)CC1=O (centres undefined) | 15 | 8.3 | 16 | 22 | 21 | 56
3 | COc1ccccc1NC(C)=C1C(=O)CC(C2CCCCC2)CC1=O (centres undefined) | 12 | 21 | 12 | > 8 | 15 | 11
4 | COc1ccccc1NC(C)=C1C(=O)CC(c2ccc(F)cc2)CC1=O (centres undefined) | 1.8 | 2.1 | 1.7 | 3.3 | 5.3 | 4
5 | COc1ccccc1NC(C)=C1C(=O)CC(Cc2ccccc2)CC1=O (centres undefined) | 22 | 87 | > 100 | > 100 | > 100 | > 100
6 | CCC(Nc1cccc(OC)c1)=C1C(=O)CC(c2ccccc2)CC1=O (centres undefined) | 18 | 16 | 64 | 32 | 45 | 66
7 | CCC(Nc1ccccc1C)=C1C(=O)CC(c2ccccc2)CC1=O (centres undefined) | 2.1 | 2.8 | 2.2 | 6.9 | 6.3 | 9.2
8 | CC(Nc1ccccc1C(F)(F)F)=C1C(=O)CC(c2ccccc2)CC1=O (centres undefined) | 7.7 | 8.7 | 8.1 | 14 | 18 | 32
9 | CCC(Nc1ccc2c(c1)OCO2)=C1C(=O)CC(c2ccccc2)CC1=O (centres undefined) | 53 | 50 | 43 | 38 | 53 | 76
10 | COc1ccccc1NC(C)=C1C(=O)CC(c2c(F)cccc2F)CC1=O (centres undefined) | 39 | 60 | > 100 | > 100 | > 100 | > 100
11 | COc1cccc(OC)c1NC(C)=C1C(=O)CC(c2ccccc2)CC1=O (centres undefined) | 1.4 | 1.2 | 0.46 | 1 | 1.4 | 1.1
12 | CCC(Nc1ccc(OC)cc1)=C1C(=O)CC(c2ccccc2)CC1=O (centres undefined) | ≥ 100 | 57 | ≥ 100 | 58 | 67 | ≥ 100
13 | CCC(Nc1ccc(O)cc1)=C1C(=O)CC(c2ccccc2)CC1=O (centres undefined) | 28 | 18 | 36 | 14 | 34 | 79
14 | CCCC(Nc1ccccc1C)=C1C(=O)CC(c2ccccc2)CC1=O (centres undefined) | 44 | 47 | 46 | 41 | ≥ 100 | > 100
15 | COc1cccc(C2CC(=O)C(=C(C)Nc3ccccc3C)C(=O)C2)c1 (centres undefined) | 0.67 | 0.64 | 0.48 | 0.26 | 0.72 | 0.66
16 | CC(Nc1ccccc1F)=C1C(=O)CC(c2ccccc2)CC1=O (centres undefined) | 0.93 | 1 | 0.51 | 1.9 | 1.1 | 3.4
17 | COc1ccccc1NC(C)=C1C(=O)CC(C)(C)CC1=O | 76 | 71 | 48 | > 100 | > 100 | > 100
18 | CCC(Nc1cc(OC)c(OC)c(OC)c1)=C1C(=O)CC(c2ccccc2)CC1=O (centres undefined) | > 100 | > 100 | > 100 | > 100 | > 100 | > 100
19 | CC(Nc1cccc(F)c1F)=C1C(=O)CC(c2ccccc2)CC1=O (centres undefined) | 10 | 12 | 14 | 19 | 25 | 36
